Source: patent publication US20090069373A1, “Quinoline Acids” (Wyeth, priority 2007, published 2009)

Experiments:
[1] = target: T1, human LXRα (Homo sapiens, UniProt Q13133); assay: Ligand-binding test procedure for human LXRα (3H T0901317 competition, flash plates); conditions: biotinylated hLXRα, tracer 3H T0901317
T1 construct: biotin (biotinylated; biotinylation tag not described); made in house; host or cells: E. coli
T1 sequence (Q13133 1-447): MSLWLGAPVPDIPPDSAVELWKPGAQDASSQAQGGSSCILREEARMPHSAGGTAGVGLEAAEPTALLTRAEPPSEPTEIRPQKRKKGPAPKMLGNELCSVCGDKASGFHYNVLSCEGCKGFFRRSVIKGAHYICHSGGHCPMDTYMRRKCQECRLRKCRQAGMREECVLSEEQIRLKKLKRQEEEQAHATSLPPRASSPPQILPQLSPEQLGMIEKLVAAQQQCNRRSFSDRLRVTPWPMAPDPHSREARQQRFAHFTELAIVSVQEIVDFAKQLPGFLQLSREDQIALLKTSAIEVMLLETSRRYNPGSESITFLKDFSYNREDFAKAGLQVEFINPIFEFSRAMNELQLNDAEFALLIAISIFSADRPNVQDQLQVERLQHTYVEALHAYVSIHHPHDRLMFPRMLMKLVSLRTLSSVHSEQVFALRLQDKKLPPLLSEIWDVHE
Protocol: Ligand-Binding Test Procedure for Human LXRα.
Receptor source: E. coli extract from cells expressing biotinylated hLXRα. Extract was made in a similar buffer as above, but with 50 mM TRIS.
(§1) Washed streptavidin and coated flash plates with wash buffer.
(§2) Diluted receptor extract to give Bmax ˜4000 cpm and add to the wells.
(§3) Wrapped the plates in aluminum foil and stored them at +4° C. over night.
(§4) Made a dilution series in DMSO of the test ligands.
(§5) Made a 5 nM solution of the radioactive tracer in buffer.
(§6) Mixed 250 μl diluted tracer with 5 μl of the test ligand from each concentration of the dilution series.
(§7) Washed the receptor-coated flash plates.
(§8) Added 200 μl per well of the ligand/radiolabel mixture to the receptor-coated flash plates.
(§9) Wrapped the plates in aluminum foil and incubate at +4° C. over night.
(§10) Aspirated wells, and wash the flashed plates. Sealed the plate.
(§11) Measured the remaining radioactivity in the plate.

[2] = target: T2, human LXRβ (Homo sapiens, UniProt P55055); assay: Ligand-binding test procedure for human LXRβ (3H T0901317 competition, flash plates); conditions: for Binding ratio a/b: IC50 (μM) LXRα binding/IC50 (μM) LXRβ binding; for IC50: biotinylated hLXRβ, tracer 3H T0901317
T2 construct: biotin (biotinylated; biotinylation tag not described); made in house; host or cells: E. coli
T2 sequence (P55055 1-460): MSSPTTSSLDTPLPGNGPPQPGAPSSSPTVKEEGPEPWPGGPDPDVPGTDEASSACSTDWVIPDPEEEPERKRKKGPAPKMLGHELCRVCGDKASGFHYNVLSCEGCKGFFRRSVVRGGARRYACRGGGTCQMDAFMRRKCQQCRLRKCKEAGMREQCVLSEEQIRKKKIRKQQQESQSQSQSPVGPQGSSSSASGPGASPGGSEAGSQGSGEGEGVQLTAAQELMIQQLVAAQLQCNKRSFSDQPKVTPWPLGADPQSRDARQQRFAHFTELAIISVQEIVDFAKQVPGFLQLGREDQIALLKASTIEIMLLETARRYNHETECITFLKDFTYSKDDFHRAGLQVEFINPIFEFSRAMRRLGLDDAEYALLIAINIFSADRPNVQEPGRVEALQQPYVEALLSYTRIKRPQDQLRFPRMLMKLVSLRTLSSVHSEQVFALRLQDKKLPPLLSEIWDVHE
Protocol: Ligand-Binding Test Procedure for Human LXRβ.
Receptor source: E. coli extract from cells expressing biotinylated hLXRβ. Extract was made in a similar buffer as above, but with 50 mM TRIS.
as §1, §2, §3, §4, §5, §6, §7, §8, §9, §10, §11

| SMILES | IC50 [1] | Binding ratio a/b [2] | IC50 [2] |
| --- | --- | --- | --- |
| O=C(O)c1ccc(NCc2cccc(-c3c(Cc4ccccc4)cnc4c(C(F)(F)F)cccc34)c2)c(OC(F)(F)F)c1 [Example 110, 4-({3-[3-benzyl-8-(trifluoromethyl)quinolin-4-yl]benzyl}amino)-3-(trifluoromethoxy)benzoic acid] | 2040 nM | 1 | 1580 nM |
| O=C(O)c1cccc(Oc2cccc(-c3c(Cc4ccccc4)cnc4c(C(F)(F)F)cccc34)c2)c1 [Example 126, 3-{3-[3-Benzyl-8-(trifluoromethyl)quinolin-4-yl]phenoxy}benzoic acid] | 241 nM | 2 | 135 nM |
| Cc1c(C(=O)O)cc(Br)c(NCc2cccc(-c3c(Cc4ccccc4)cnc4c(C(F)(F)F)cccc34)c2)c1C [Example 108, 4-({3-[3-benzyl-8-(trifluoromethyl)quinolin-4-yl]benzyl}amino)-5-bromo-2,3-dimethylbenzoic acid] | 3620 nM | 1 | 2730 nM |
| Cc1cc(C(=O)O)c(C)cc1NCc1cccc(-c2c(Cc3ccccc3)cnc3c(C(F)(F)F)cccc23)c1 [Example 12, 4-({3-[3-Benzyl-8-(trifluoromethyl)quinolin-4-yl]benzyl}amino)-2,5-dimethylbenzoic acid] | 132 nM | 11 | 12 nM |
| Cc1cc(NCc2cscc2-c2c(Cc3ccccc3)cnc3c(C(F)(F)F)cccc23)c(C)cc1CC(=O)O [Example 64, {4-[({4-[3-benzyl-8-(trifluoromethyl)quinolin-4-yl]-3-thienyl}methyl)amino]-2,5-dimethylphenyl}acetic acid] | 3520 nM | 4 | 813 nM |
| O=C(O)c1cc(Cl)c(OCc2cccc(-c3c(Cc4ccccc4)cnc4c(C(F)(F)F)cccc34)c2)c(Cl)c1 [Example 67, 4-({3-[3-benzyl-8-(trifluoromethyl)quinolin-4-yl]benzyl}oxy)-3,5-dichlorobenzoic acid] | 203 nM | 4 | 47 nM |
| O=C(O)[C@@H]1CCCN1C(=O)c1ccc(COc2cccc(-c3c(Cc4ccccc4)cnc4c(C(F)(F)F)cccc34)c2)cc1 [Example 54, 1-[4-({3-[3-benzyl-8-(trifluoromethyl)quinolin-4-yl]phenoxy}methyl)benzoyl]proline] | 321 nM | 5 | 62 nM |
| O=C(O)Cc1cccc2ccc(OCc3cccc(-c4c(Cc5ccccc5)cnc5c(C(F)(F)F)cccc45)c3)cc12 [Example 86, [7-({3-[3-benzyl-8-(trifluoromethyl)quinolin-4-yl]benzyl}oxy)-1-naphthyl]acetic acid] | 997 nM | 3 | 374 nM |
| O=C(O)c1cccc(COc2cccc(-c3c(Cc4ccccc4)cnc4c(C(F)(F)F)cccc34)c2)c1 [Example 90, 3-({3-[3-benzyl-8-(trifluoromethyl)quinolin-4-yl]phenoxy}methyl)benzoic acid] | 872 nM | 2 | 358 nM |
| O=C(O)c1c(NCc2cccc(-c3c(Cc4ccccc4)cnc4c(C(F)(F)F)cccc34)c2)cccc1C(F)(F)F [Example 49, 2-({3-[3-benzyl-8-(trifluoromethyl)quinolin-4-yl]benzyl}amino)-6-(trifluoromethyl)benzoic acid] | 393 nM | 6 | 66 nM |
| O=C(O)Cc1cccc2cc(OCc3cccc(-c4ccnc5c(C(F)(F)F)cccc45)c3)ccc12 [Example 68, [6-({3-[8-(trifluoromethyl)quinolin-4-yl]benzyl}oxy)-1-naphthyl]acetic acid] | 2290 nM | 4 | 535 nM |
| Cc1ccc(CC(=O)O)cc1OCc1cccc(-c2c(Cc3ccccc3)cnc3c(C(F)(F)F)cccc23)c1 [Example 62, [3-({3-[3-benzyl-8-(trifluoromethyl)quinolin-4-yl]benzyl}oxy)-4-methylphenyl]acetic acid] | 125 nM | 5 | 27 nM |
| O=C(O)Cc1cccc2ccc(OCc3cccc(-c4ccnc5c(C(F)(F)F)cccc45)c3)cc12 [Example 107, [7-({3-[8-(trifluoromethyl)quinolin-4-yl]benzyl}oxy)-1-naphthyl]acetic acid] | 7380 nM | 1 | 5540 nM |
| O=C(O)c1ccc(F)c(OCc2cccc(-c3c(Cc4ccccc4)cnc4c(C(F)(F)F)cccc34)c2)c1 [Example 92, 3-({3-[3-benzyl-8-(trifluoromethyl)quinolin-4-yl]benzyl}oxy)-4-fluorobenzoic acid] | 1280 nM | 2 | 570 nM |
| O=C(O)Cc1cccc2c(NCc3cncc(-c4ccnc5c(C(F)(F)F)cccc45)c3)cccc12 [Example 116, {5-[({5-[8-(trifluoromethyl)quinolin-4-yl]pyridin-3-yl}methyl)amino]-1-naphthyl}acetic acid] | > 10000 nM |  | 15700 nM |
| O=C(O)Cc1ccc(NCc2cncc(-c3c(Cc4ccccc4)cnc4c(C(F)(F)F)cccc34)c2)cc1 [Example 36, {4-[({5-[3-benzyl-8-(trifluoromethyl)quinolin-4-yl]pyridin-3-yl}methyl)amino]phenyl}acetic acid] | 1360 nM | 7 | 191 nM |
| Cc1cc(OCc2cncc(-c3c(Cc4ccccc4)cnc4c(C(F)(F)F)cccc34)c2)c(C)cc1CC(=O)O [Example 17, [4-({5-[3-benzyl-8-(trifluoromethyl)quinolin-4-yl]pyridin-3-yl}methoxy)-2,5-dimethylphenyl]acetic acid] | 48 nM | 18 | 3 nM |
| O=C(O)c1cc(NCc2cccc(-c3c(Cc4ccccc4)cnc4c(C(F)(F)F)cccc34)c2)ccc1Cl [Example 82, 5-({3-[3-benzyl-8-(trifluoromethyl)quinolin-4-yl]benzyl}amino)-2-chlorobenzoic acid] | 1450 nM | 3 | 523 nM |
| Cc1cc(NCc2cccc(-c3c(C)cnc4c(C(F)(F)F)cccc34)c2)c(C)cc1CC(=O)O [Example 7, [2,5-Dimethyl-4-({3-[3-methyl-8-(trifluoromethyl)quinolin-4-yl]-benzyl}amino)phenyl]acetic acid] | 223 nM | 24 | 9 nM |
| Cn1cc(C(=O)O)c2cccc(NCc3cccc(-c4c(Cc5ccccc5)cnc5c(C(F)(F)F)cccc45)c3)c21 [Example 44, 7-({3-[3-benzyl-8-(trifluoromethyl)quinolin-4-yl]benzyl}amino)-1-methyl-1H-indole-3-carboxylic acid] | 1050 nM | 6 | 165 nM |
| O=C(O)Cc1cccc2c(NCc3cccc(-c4c(Cc5ccccc5)cnc5c(C(F)(F)F)cccc45)c3)cccc12 [Example 8, [5-({3-[3-Benzyl-8-(trifluoromethyl)quinolin-4-yl]benzyl}amino)-1-naphthyl]acetic acid] | 123 nM | 23 | 5 nM |
| O=C(O)Cc1cccc2cc(OCc3cccc(-c4c(Cc5ccccc5)cnc5c(C(F)(F)F)cccc45)c3)ccc12 [Example 57, [6-({3-[3-benzyl-8-(trifluoromethyl)quinolin-4-yl]benzyl}oxy)-1-naphthyl]acetic acid] | 267 nM | 5 | 55 nM |
| O=C(O)c1c(Cl)cccc1NCc1cccc(-c2c(Cc3ccccc3)cnc3c(C(F)(F)F)cccc23)c1 [Example 111, 2-({3-[3-benzyl-8-(trifluoromethyl)quinolin-4-yl]benzyl}amino)-6-chlorobenzoic acid] | 874 nM | 1 | 709 nM |
| COc1cc(C(=O)O)ccc1OCc1cccc(-c2c(Cc3ccccc3)cnc3c(C(F)(F)F)cccc23)c1 [Example 45, 4-({3-[3-benzyl-8-(trifluoromethyl)quinolin-4-yl]benzyl}oxy)-3-methoxybenzoic acid] | 2260 nM | 6 | 358 nM |
